# Assay results taken from ChEMBL document CHEMBL1151038, “-Glucan biosynthesis inhibitors isolated from fungi as hyphal malformation inducer” (1993).
# Legend:
# [1] = system: Saccharomyces cerevisiae; assay: In vitro inhibitory activity of Beta-1,3-glucan synthase of Saccharomyces cerevisiae at concentration of 25 ug/ml
# [2] = system: Saccharomyces cerevisiae; assay: In vitro inhibitory activity of Beta-1,3-glucan synthase of Saccharomyces cerevisiae at concentration of 200 ug/ml
# [3] = system: Saccharomyces cerevisiae; assay: In vitro inhibitory activity of Beta-1,3-glucan synthase of Saccharomyces cerevisiae at concentration of 800 ug/ml
# [4] = system: Saccharomyces cerevisiae; assay: In vitro inhibitory activity of Beta-1,3-glucan synthase of Saccharomyces cerevisiae at concentration of 50 ug/ml
# [5] = system: Saccharomyces cerevisiae; assay: In vitro inhibitory activity of Beta-1,3-glucan synthase of Saccharomyces cerevisiae at concentration of 400 ug/ml
# [6] = system: Saccharomyces cerevisiae; assay: In vitro inhibitory activity of Beta-1,3-glucan synthase of Saccharomyces cerevisiae at concentration of 100 ug/ml
# [7] = system: Phytophthora capsici; assay: Minimum amount required to induce hyphal malformation in Phytophthora capsici; format: functional
# [8] = system: Saccharomyces cerevisiae; assay: In vitro inhibitory activity of Beta-1,3-glucan synthase of Saccharomyces cerevisiae at concentration of 12.5 ug/ml
Compound,inhibition [1] [%],inhibition [2] [%],inhibition [3] [%],inhibition [4] [%],inhibition [5] [%],inhibition [6] [%],Activity [7] [ug disk-1],inhibition [8] [%]
CC(C)=C[C@H]1C[C@H](C)[C@]2(CC[C@]3(C)C[C@H]4[C@H](C(=O)C[C@@]4(C)O)/C(C=O)=C\C[C@H]32)O1 [OPHIOBOLIN A],56,79,89,56,84,74,10,31
C[C@H]1CCC/C=C/[C@@H]2C[C@H](O)C[C@H]2[C@H](O)/C=C/C(=O)O1 [BREFELDIN A],0,0,0,0,6,0,50,0
C[C@H]1C(=O)C(CO)=C[C@H](O)[C@H]1O,30,75,91,47,85,66,100,12
